Columns and labels:
Assay in all cases: Post-emergence efficacy, glasshouse, percentage damage to plant
Format in all cases: in vivo
[1] = tested on: Amaranthus retroflexus (AMARE); settings: 14 days
Description: (§1) Seeds of a variety of test species are sown in standard soil in pots (Digitaria sanguinalis (DIGSA), Echinochloa crus-galli (ECHCG), Setaria faberi (SETFA), Stellaria media (STEME), Amaranthus retroflexus (AMARE), Chenopodium album (CHEAL), Abutilon theophrasti (ABUTH), Ipomoea hederacea (IPOHE), Phalaris minor (PHAMI), Eleusine indica (ELEIN), Sorghum bicolor (SORVU), Euphorbia heterophylla (EPHHL), Fallopia convolvulus (POLCO)), and cultivated under controlled conditions in a glasshouse (at 24/16° C., day/night; 14 hours light; 65% humidity), the plants are sprayed with an aqueous spray solution derived from the dissolution of Component (A) in acetone and IF50 (11.12% Emulsogen EL360 TM+44.44% N-methylpyrrolidone+44.44% Dowanol DPM glycol ether) and Component (B) which was then diluted to the required concentration using 0.2% Genapol XO80 (CAS No. 9043-30-5) in water as the diluent. Test compounds or compositions are applied at the rates stated. The test plants are then grown in a glasshouse under controlled conditions in a glasshouse (at […], day/night; 14 hours light; 65% humidity) and watered twice daily. After 14 days, the test is evaluated for the percentage damage caused to the plant (100=total damage to plant; 0=no damage to plant), and the result are shown below in table B1 to B18.

[2] = tested on: Eleusine indica (ELEIN); settings: 14 days, Table B17
Description: as §1

[3] = tested on: Euphorbia heterophylla (EPHHL); settings: 14 days, Table B11
Description: as §1

[4] = tested on: Digitaria sanguinalis (DIGSA); settings: 14 days, Table B1
Description: as §1

[5] = tested on: Phalaris minor (PHAMI); settings: 14 days, Table B9
Description: as §1

[6] = tested on: Echinochloa crus-galli (ECHCG); settings: growth stage 4 true leaves, 14 days
Description: as §1

[7] = tested on: Ipomoea hederacea (IPOHE); settings: 14 days
Description: as §1

[8] = tested on: Chenopodium album (CHEAL); settings: 14 days, Table B6
Description: as §1

[9] = tested on: Stellaria media (STEME); settings: 14 days
Description: as §1

[10] = tested on: Abutilon theophrasti (ABUTH); settings: 14 days, Table B7
Description: as §1

[11] = tested on: Sorghum bicolor (SORVU); settings: 14 days, Table B10
Description: as §1

[12] = tested on: Setaria faberi (SETFA); settings: 14 days, Table B3
Description: as §1

[13] = tested on: Fallopia convolvulus (POLCO); settings: 14 days
Description: as §1

[14] = Compound (Ia) 0.46875 g/Ha alone
[15] = Compound (Ia) 0.9375 g/Ha alone

SMILES: CCOC(=O)C1(C)CC(c2cc(-n3c(=O)cc(C(F)(F)F)n(C)c3=O)c(F)cc2Cl)=NO1 (stereo not drawn) [Compound (Ia)]
- Observed Activity ([1]; Compound (Ia) 0.9375 g/Ha alone, Table B5): 51.3%
- Observed Activity ([1]; Compound (Ia) 0.9375 g/Ha alone, Table B15): 51.3%
- Observed Activity ([1]; Compound (Ia) 1.875 g/Ha alone, Table B5): 73.8%
- Observed Activity [2, 14]: 37.5%
- Observed Activity ([2]; Compound (Ia) 7.5 g/Ha alone): 89.8%
- Observed Activity [3, 15]: 33.3%
- Observed Activity ([3]; Compound (Ia) 1.875 g/Ha alone): 45.3%
- Observed Activity [4, 15]: 23.8%
- Observed Activity [5, 14]: 7.5%
- Observed Activity [5, 15]: 11.3%
- Observed Activity ([5]; Compound (Ia) 1.875 g/Ha alone): 25.8%
- Observed Activity ([5]; Compound (Ia) 3.75 g/Ha alone): 57.0%
- Observed Activity ([5]; Compound (Ia) 7.5 g/Ha alone): 72.8%
- Observed Activity ([6]; Compound (Ia) 3.75 g/Ha alone, Table B2): 52.5%
- Observed Activity ([6]; Compound (Ia) 3.75 g/Ha alone, Table B13): 31.3%
- Observed Activity ([6]; Compound (Ia) 7.5 g/Ha alone, Table B2): 68.8%
- Observed Activity ([6]; Compound (Ia) 7.5 g/Ha alone, Table B13): 47.5%
- Observed Activity ([7]; Compound (Ia) 0.46875 g/Ha alone, Table B8): 53.8%
- Observed Activity ([7]; Compound (Ia) 0.46875 g/Ha alone, Table B16): 53.8%
- Observed Activity ([7]; Compound (Ia) 1.875 g/Ha alone, Table B8): 83.8%
- Observed Activity ([7]; Compound (Ia) 1.875 g/Ha alone, Table B16): 83.8%
- Observed Activity ([8]; Compound (Ia) 1.875 g/Ha alone): 77.5%
- Observed Activity ([9]; Compound (Ia) 0.9375 g/Ha alone, Table B4): 27.5%
- Observed Activity ([9]; Compound (Ia) 1.875 g/Ha alone, Table B4): 43.8%
- Observed Activity ([9]; Compound (Ia) 7.5 g/Ha alone, Table B14): 67.5%
- Observed Activity [10, 14]: 25.0%
- Observed Activity [10, 15]: 67.5%
- Observed Activity ([10]; Compound (Ia) 1.875 g/Ha alone): 88.8%
- Observed Activity ([11]; Compound (Ia) 7.5 g/Ha alone): 72.3%
- Observed Activity ([12]; Compound (Ia) 3.75 g/Ha alone): 73.8%
- Observed Activity ([13]; Compound (Ia) 0.9375 g/Ha alone, Table B18): 82.0%
- Observed Activity ([13]; Compound (Ia) 1.875 g/Ha alone, Table B12): 79.8%
- Observed Activity ([13]; Compound (Ia) 1.875 g/Ha alone, Table B18): 79.8%

SMILES: CP(=O)(O)CCC(N)C(=O)O (stereo not drawn) [Glufosinate, glufosinate]
- Observed Activity ([1]; Glufosinate 7.5 g/Ha alone, Table B5): 0.0%
- Observed Activity ([1]; Glufosinate 15 g/Ha alone, Table B5): 0.0%
- Observed Activity ([1]; Glufosinate 30 g/Ha alone, Table B5): 2.5%
- Observed Activity ([3]; Glufosinate 3.75 g/Ha alone): 12.5%
- Observed Activity ([3]; Glufosinate 7.5 g/Ha alone): 12.5%
- Observed Activity ([4]; Glufosinate 7.5 g/Ha alone): 5.0%
- Observed Activity ([5]; Glufosinate 1.875 g/Ha alone): 2.5%
- Observed Activity ([5]; Glufosinate 3.75 g/Ha alone): 5.0%
- Observed Activity ([5]; Glufosinate 7.5 g/Ha alone): 12.5%
- Observed Activity ([5]; Glufosinate 15 g/Ha alone): 7.5%
- Observed Activity ([5]; Glufosinate 30 g/Ha alone): 12.5%
- Observed Activity ([6]; Glufosinate 30 g/Ha alone, Table B2): 47.5%
- Observed Activity ([6]; Glufosinate 60 g/Ha alone, Table B2): 67.5%
- Observed Activity ([6]; Glufosinate 120 g/Ha alone, Table B2): 91.5%
- Observed Activity ([7]; Glufosinate 7.5 g/Ha alone, Table B8): 2.5%
- Observed Activity ([7]; Glufosinate 30 g/Ha alone, Table B8): 7.5%
- Observed Activity ([8]; Glufosinate 15 g/Ha alone): 0.0%
- Observed Activity ([9]; Glufosinate 7.5 g/Ha alone, Table B4): 0.0%
- Observed Activity ([9]; Glufosinate 30 g/Ha alone, Table B4): 2.5%
- Observed Activity ([10]; Glufosinate 7.5 g/Ha alone): 7.5%
- Observed Activity ([10]; Glufosinate 15 g/Ha alone): 10.0%
- Observed Activity ([11]; Glufosinate 30 g/Ha alone): 24.0%
- Observed Activity ([12]; Glufosinate 30 g/Ha alone): 15.0%
- Observed Activity ([13]; Glufosinate 7.5 g/Ha alone, Table B12): 7.5%

SMILES: CP(=O)(O)CC[C@H](N)C(=O)O [L-Glufosinate, L-glufosinate]
- Observed Activity ([1]; L-Glufosinate 7.5 g/Ha alone, Table B15): 5.0%
- Observed Activity ([1]; L-Glufosinate 15 g/Ha alone, Table B15): 7.5%
- Observed Activity ([2]; L-Glufosinate 1.875 g/Ha alone): 0.0%
- Observed Activity ([2]; L-Glufosinate 30 g/Ha alone): 20.0%
- Observed Activity ([6]; L-Glufosinate 30 g/Ha alone, Table B13): 5.0%
- Observed Activity ([6]; L-Glufosinate 60 g/Ha alone, Table B13): 22.5%
- Observed Activity ([6]; L-Glufosinate 120 g/Ha alone, Table B13): 32.5%
- Observed Activity ([7]; L-Glufosinate 7.5 g/Ha alone, Table B16): 5.0%
- Observed Activity ([7]; L-Glufosinate 15 g/Ha alone, Table B16): 15.0%
- Observed Activity ([9]; L-Glufosinate 120 g/Ha alone, Table B14): 32.5%
- Observed Activity ([13]; L-Glufosinate 3.75 g/Ha alone, Table B18): 10.0%
- Observed Activity ([13]; L-Glufosinate 7.5 g/Ha alone, Table B18): 25.0%
